In general, solubility refers to the concentration that dissolves in the medium under given conditions.

Results on four compounds are retold here after US20100080852A1, “PHAMACEUTICAL COMPOSITION COMPRISING NANOPARTICLES AND CASEIN” (priority 2007, published 2010).

Molecules are shown by their SMILES. Converted amounts (≈) assume the structure as drawn. Like-named read-outs stand apart in the source and are kept apart here. A value given as a limit tells only on which side of the number the result lay.

Series [1] in a line: Solubility of the drugs in MFD solution, PBS or water. Format: physicochemical.
The nature of series [2]: Log P value of the drugs. Format: physicochemical. To be noted: octanol/water. An excerpt:
The first property of hydrophobic drugs is that they are extremely hydrophobic. Log P, defined as the base 10 logarithm of the ratio of the drug solubility in octanol to the drug solubility in water, is a widely accepted measure of hydrophobicity. By “extremely hydrophobic” is meant that the Log P value of the drug is at least 4.0, preferably at least 4.5, and most preferably at least 5.0. Log P may be measured experimentally or calculated using methods known in the art. When using a calculated value for Log P, the highest value calculated using any generally accepted method for calculating Log P is used. Calculated Log P values are often referred to by the calculation method, such as Clog P, Alog P, and Mlog P. The Log P may also be estimated using fragmentation methods, such as Crippen's fragmentation method (27 J. Chem. Inf. Comput. Sci. 21 (1987)); Viswanadhan's fragmentation method (29 J. Chem. Inf. Comput. Sci. 163 (1989)); or Broto's fragmentation method (19 Eur. J. Med. Chem.-Chim. Theor. 71 (1984). Preferably the Log P value is calculated by using the average value estimated using Crippen's, Viswanadhan's, and Broto's fragmentation methods.

The mark [3] stands for this setting: MFD solution, fassgf or other biorelevant, read-out: solubility in MFD solution.

For `CCc1cc(Oc2cccc(N(Cc3cccc(OC(F)(F)C(F)F)c3)C[C@@H](O)C(F)(F)F)c2)ccc1Cl` [Drug 2, (2R)-3-[[3-(4-chloro-3-ethylphenoxy)phenyl][[3-(1,1,2,2-tetrafluoroethoxy)phenyl]methyl]amino]-1,1,1-trifluoro-2-propanol], the solubility in series [1] (PBS, aqueous buffer, read-out: solubility in PBS) is less than 0.1 µg/mL. In addition, the logP in series [2] (read-out: Log P value) came to 10.

On to `c1cc[c]([Bi]([c]2ccccc2)[c]2ccccc2)cc1` [Drug 5, triphenyl bismuth], for which the logP in series [2] turned out to be 6. Consider `CC[C@@H]1C[C@H](N(Cc2cc(C(F)(F)F)cc(C(F)(F)F)c2)C(C)=O)c2cc(C(F)(F)F)ccc2N1C(=O)OC(C)C` [Drug 3, [2R,4S] 4-[acetyl-(3,5-bis-trifluoromethyl-benzyl)-amino]-2-ethyl-6-trifluoromethyl-3,4-dihydro-2H-quinoline-1-carboxylic acid isopropyl ester], for which, in series [1] (setting [3]), the solubility was approximately 11 µg/mL (≈ 18.4 µM). `Cc1ccc(-c2cc(C(F)(F)F)nn2-c2ccc(S(N)(=O)=O)cc2)cc1` [Drug 1, 4-[5-(4-methylphenyl)-3-(trifluoromethyl)-1H-pyrazol-1-yl]benzenesulfonamide]: the solubility in series [1] (setting [3]) was approximately 40 µg/mL (≈ 105 µM). In series [2] (read-out: Log P value), the logP is 3.75.
